Assays:
giant foxtail = test: Test B pre/postemergence giant foxtail; format: in vivo, Setaria faberii
Procedure, shortened: (§1)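 Test chemicals in a non-phytotoxic solvent mixture with surfactant were sprayed preemergence onto planted seeds and postemergence onto plants 2 to 18 cm tall (1- to 4-leaf stage). After twelve to sixteen days in a greenhouse, injury was visually rated against untreated controls from 0 (no effect) to 10 (complete control).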

morningglory = test: Test B pre/postemergence morningglory; format: in vivo, Ipomoea hederacea
Procedure, shortened: as §1

rice = test: Test B flood test rice; format: in vivo, Oryza sativa
Procedure, shortened: (§2)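 Read-out is a visual response score from 0 (no effect) to 10 (complete control), assigned by comparison with untreated controls. Treatment was applied at the 2-leaf stage, and plants stayed in the greenhouse for twelve to sixteen days before scoring.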

duck salad = test: Test B flood test duck salad; format: in vivo, Heteranthera limosa
Procedure, shortened: as §2

winter wheat [1] = test: Test E winter wheat; format: in vivo, Triticum aestivum; details: Postemergence
Procedure, shortened: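 Each compound, carried in a non-phytotoxic solvent blend including surfactant, was applied (postemergence: over the top of young plants at 1- to 4-leaf stage). Plants stayed in the greenhouse about 21 to 28 days before visual comparison with untreated controls.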

blackgrass = test: Test E blackgrass; format: in vivo, Alopecurus myosuroides; details: Preemergence
green foxtail = test: Test E green foxtail; format: in vivo, Setaria viridis; details: Preemergence
Italian ryegrass = test: Test E Italian ryegrass; format: in vivo, Lolium multiflorum; details: Preemergence
winter wheat [2] = test: Test E winter wheat; format: in vivo, Triticum aestivum; details: Preemergence
wild oat = test: Test E wild oat; format: in vivo, Avena fatua; details: Preemergence
winter barley = test: Test E winter barley; format: in vivo, Hordeum vulgare; details: Preemergence
[3] = Postemergence, Rate 125 g/ha, scale of 0 to 10 where 0 is no effect and 10 is complete control
[4] = Postemergence, Rate 250 g/ha, scale 0 to 10, 0 no effect, 10 complete control
[5] = Preemergence, Rate 62 g/ha, scale 0 to 10 (0 no effect, 10 complete control)
[6] = Preemergence, Rate 125 g/ha, scale 0 to 10 (0 no effect, 10 complete control)
[7] = Preemergence, Rate 250 g/ha, scale of 0 to 10 where 0 is no effect and 10 is complete control
[8] = Preemergence, Rate 500 g/ha, scale 0 to 10 (0 no effect, 10 complete control)
[9] = Rate 62 g/ha, Postemergence, scale of 0 to 10 where 0 is no effect and 10 is complete control
[10] = Rate 500 g/ha, Postemergence, scale 0 to 10, 0 no effect, 10 complete control
[11] = Postemergence (flood test species), Rate 125 g/ha, scale of 0 to 10 where 0 is no effect and 10 is complete control
[12] = Rate 62 g/ha, Postemergence section, flood test species, scale of 0 to 10 where 0 is no effect and 10 is complete control
[13] = Rate 250 g/ha, headed Pre-emergence (flood test species), scale 0 to 10 (0 no effect, 10 complete control)
[14] = Rate 500 g/ha, headed Pre-emergence (flood test species), scale 0 to 10 (0 no effect, 10 complete control)
[15] = Rate 500 g/ha, listed under Postemergence (flood test species), scale 0 to 10, 0 no effect, 10 complete control
[16] = Rate 1000 g/ha, Pre-emergence (as headed), scale 0 to 10
[17] = Rate 2000 g/ha, Pre-emergence (as headed), scale 0 to 10
[18] = Rate 62 g/ha, 0 to 100 scale, 0 no effect, 100 complete control
[19] = Rate 125 g/ha, 0 to 100 scale (0 no effect, 100 complete control)
[20] = Rate 500 g/ha, 0 to 100 scale where 0 is no effect and 100 is complete control

CCn1c(=O)on(C(=O)N(c2ccc(F)cc2F)C(C)C)c1=O [Compound 116]
60: Plant response rating, I. Ryegrass (Italian ryegrass; Rate 250 g/ha, 0 to 100 scale)
40: Plant response rating, Blackgrass (blackgrass; [18])
45: Plant response rating, Wheat (winter) (winter wheat [1]; Rate 250 g/ha, 0 to 100 scale (0 no effect, 100 complete control)) | Plant response rating, Blackgrass (blackgrass; Rate 250 g/ha, 0 to 100 scale)
80: Plant response rating, Wild oat (wild oat; [20]) | Plant response rating, Barley (winter) (winter barley; [20])
55: Plant response rating, Wheat (winter) (winter wheat [2]; [19])
4: Morningglory plant response rating (morningglory; [3]) | Morningglory plant response rating (morningglory; [4]) | Plant response rating, Morningglory (morningglory; [7]) | Rice plant response rating (rice; [17])
65: Plant response rating, Green foxtail (green foxtail; [18])
100: Plant response rating, Blackgrass (blackgrass; [20]) | Plant response rating, Green foxtail (green foxtail; Rate 250 g/ha, 0 to 100 scale) | Plant response rating, I. Ryegrass (Italian ryegrass; [20]) | Plant response rating, Wheat (winter) (winter wheat [2]; [20])
30: Plant response rating, I. Ryegrass (Italian ryegrass; [19]) | Plant response rating, Wheat (winter) (winter wheat [2]; [18]) | Plant response rating, Wheat (winter) (winter wheat [2]; Rate 250 g/ha, 0 to 100 scale) | Plant response rating, Wild oat (wild oat; [19]) | Plant response rating, Barley (winter) (winter barley; [19])
50: Plant response rating, Blackgrass (blackgrass; [19]) | Plant response rating, Green foxtail (green foxtail; [19]) | Plant response rating, I. Ryegrass (Italian ryegrass; [18])
8: Morningglory plant response rating (morningglory; [8]) | Ducksalad plant response rating (duck salad; [17])
0: Morningglory plant response rating (morningglory; [5]) | Plant response rating, Morningglory (morningglory; [6]) | Rice plant response rating (rice; [11]) | Rice plant response rating (rice; [12]) | Plant response rating, Rice (rice; Rate 250 g/ha, Postemergence (flood test), scale 0 to 10, 0 is no effect, 10 is complete control) | Rice plant response rating (rice; [13]) | Plant response rating, Rice (rice; [14]) | Rice plant response rating (rice; [15]) | Rice plant response rating (rice; [16]) | Ducksalad plant response rating (duck salad; [11]) | Ducksalad plant response rating (duck salad; [12]) | Ducksalad plant response rating (duck salad; [13]) | Plant response rating, Ducksalad (duck salad; [14]) | Ducksalad plant response rating (duck salad; [15]) | Ducksalad plant response rating (duck salad; flood test, listed under Postemergence, Rate 250 g/ha, scale 0 to 10, 0 no effect, 10 complete control)
20: Plant response rating, Wheat (winter) (winter wheat [1]; Rate 62 g/ha, 0 to 100 scale) | Plant response rating, Wild oat (wild oat; [18])
10: Giant foxtail plant response rating (giant foxtail; [5]) | Plant response rating, Giant foxtail (giant foxtail; [6]) | Plant response rating, Giant foxtail (giant foxtail; [7]) | Giant foxtail plant response rating (giant foxtail; [8]) | Plant response rating, Wheat (winter) (winter wheat [1]; Rate 125 g/ha, 0 to 100 scale) | Plant response rating, Wheat (winter) (winter wheat [1]; Rate 500 g/ha, 0 to 100 scale, 0 no effect, 100 complete control) | Plant response rating, Barley (winter) (winter barley; [18])
2: Morningglory plant response rating (morningglory; [9])
7: Morningglory plant response rating (morningglory; [10])
70: Plant response rating, Barley (winter) (winter barley; Rate 250 g/ha, 0 to 100 scale)
9: Giant foxtail plant response rating (giant foxtail; [3]) | Giant foxtail plant response rating (giant foxtail; [4]) | Giant foxtail plant response rating (giant foxtail; [9]) | Giant foxtail plant response rating (giant foxtail; [10])
1: Ducksalad plant response rating (duck salad; [16])
